{"source": "patent US6358885B1", "about": "“Substituted phenylheterocyclic herbicides” (Mississippi State University, priority 1992, dated 2002)", "assay_in_all_cases": "Test B preemergence/postemergence greenhouse plant response rating 0 to 10", "conditions_in_all_cases": "0 to 10 scale", "key": {"barley": {"tested_on": "barley", "format": "in vivo, Hordeum vulgare", "method_in_brief": "(§1)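 Both application timings were run together: seeds got compound preemergence, and established seedlings (two to eighteen cm) got it postemergence. Non-phytotoxic solvent carried the chemical. Ratings are visual, versus controls, at twelve to sixteen days.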"}, "barnyardgrass": {"tested_on": "barnyardgrass", "format": "in vivo, Echinochloa crus-galli", "method_in_brief": "as §1"}, "bedstraw": {"tested_on": "bedstraw", "format": "in vivo, Galium aparine", "method_in_brief": "as §1"}, "blackgrass": {"tested_on": "blackgrass", "format": "in vivo, Alopecurus myosuroides", "method_in_brief": "as §1"}, "cheatgrass": {"tested_on": "cheatgrass", "format": "in vivo, Bromus secalinus", "method_in_brief": "as §1"}, "chickweed": {"tested_on": "chickweed", "format": "in vivo, Stellaria media", "method_in_brief": "as §1"}, "cocklebur": {"tested_on": "cocklebur", "format": "in vivo, Xanthium pensylvanicum", "method_in_brief": "as §1"}, "corn": {"tested_on": "corn", "format": "in vivo, Zea mays", "method_in_brief": "as §1"}, "cotton": {"tested_on": "cotton", "format": "in vivo, Gossypium hirsutum", "method_in_brief": "as §1"}, "crabgrass": {"tested_on": "crabgrass", "format": "in vivo, Digitaria spp.", "method_in_brief": "as §1"}, "giant foxtail": {"tested_on": "giant foxtail", "format": "in vivo, Setaria faberii", "method_in_brief": "as §1"}, "lambsquarters": {"tested_on": "lambsquarters", "format": "in vivo, Chenopodium album", "method_in_brief": "as §1"}, "morningglory": {"tested_on": "morningglory", "format": "in vivo, Ipomoea hederacea", "method_in_brief": "as §1"}, "rape": {"tested_on": "rape", "format": "in vivo, Brassica napus", "method_in_brief": "as §1"}, "rice": {"tested_on": "rice", "format": "in vivo, Oryza sativa", "method_in_brief": "as §1"}, "sorghum": {"tested_on": "sorghum", "format": "in vivo, Sorghum bicolor", "method_in_brief": "as §1"}, "soybean": {"tested_on": "soybean", "format": "in vivo, Glycine max", "method_in_brief": "as §1"}, "sugar beet": {"tested_on": "sugar beet", "format": "in vivo, Beta vulgaris", "method_in_brief": "as §1"}, "velvetleaf": {"tested_on": "velvetleaf", "format": "in vivo, Abutilon theophrasti", "method_in_brief": "as §1"}, "wheat": {"tested_on": "wheat", "format": "in vivo, Triticum aestivum", "method_in_brief": "as §1"}, "wild buckwheat": {"tested_on": "wild buckwheat", "format": "in vivo, Polygonum convolvulus", "method_in_brief": "as §1"}, "wild oat": {"tested_on": "wild oat", "format": "in vivo, Avena fatua", "method_in_brief": "as §1"}, "purple nutsedge": {"tested_on": "purple nutsedge", "format": "in vivo, Cyperus rotundus", "method_in_brief": "as §1"}}}
{"smiles": "C=CCOC(=O)COc1cc(-c2nn3c(c2Cl)CCCC3)c(F)cc1Cl", "note": "[Compound 62]", "values": [{"measurement": "Plant response rating, Barley", "setting": "barley; POSTEMERGENCE, Rate 10 g/ha", "value": 1}, {"measurement": "Plant response rating, Barley", "setting": "barley; POSTEMERGENCE, Rate 50 g/ha", "value": 1}, {"measurement": "Plant response rating, Barley", "setting": "barley; PREEMERGENCE, Rate 10 g/ha", "value": 0}, {"measurement": "Plant response rating, Barley", "setting": "barley; PREEMERGENCE, Rate 50 g/ha", "value": 0}, {"measurement": "Plant response rating, Barnyardgrass", "setting": "barnyardgrass; POSTEMERGENCE, Rate 10 g/ha", "value": 2}, {"measurement": "Plant response rating, Barnyardgrass", "setting": "barnyardgrass; POSTEMERGENCE, Rate 50 g/ha", "value": 3}, {"measurement": "Plant response rating, Barnyardgrass", "setting": "barnyardgrass; PREEMERGENCE, Rate 10 g/ha", "value": 0}, {"measurement": "Plant response rating, Barnyardgrass", "setting": "barnyardgrass; PREEMERGENCE, Rate 50 g/ha", "value": 0}, {"measurement": "Plant response rating, Bedstraw", "setting": "bedstraw; POSTEMERGENCE, Rate 10 g/ha", "value": 8}, {"measurement": "Plant response rating, Bedstraw", "setting": "bedstraw; POSTEMERGENCE, Rate 50 g/ha", "value": 9}, {"measurement": "Plant response rating, Bedstraw", "setting": "bedstraw; PREEMERGENCE, Rate 10 g/ha", "value": 7}, {"measurement": "Plant response rating, Bedstraw", "setting": "bedstraw; PREEMERGENCE, Rate 50 g/ha", "value": 7}, {"measurement": "Plant response rating, Blackgrass", "setting": "blackgrass; POSTEMERGENCE, Rate 10 g/ha", "value": 1}, {"measurement": "Plant response rating, Blackgrass", "setting": "blackgrass; POSTEMERGENCE, Rate 50 g/ha", "value": 2}, {"measurement": "Plant response rating, Blackgrass", "setting": "blackgrass; PREEMERGENCE, Rate 10 g/ha", "value": 0}, {"measurement": "Plant response rating, Blackgrass", "setting": "blackgrass; PREEMERGENCE, Rate 50 g/ha", "value": 0}, {"measurement": "Plant response rating, Cheatgrass", "setting": "cheatgrass; POSTEMERGENCE, Rate 10 g/ha", "value": 1}, {"measurement": "Plant response rating, Cheatgrass", "setting": "cheatgrass; POSTEMERGENCE, Rate 50 g/ha", "value": 2}, {"measurement": "Plant response rating, Cheatgrass", "setting": "cheatgrass; PREEMERGENCE, Rate 10 g/ha", "value": 0}, {"measurement": "Plant response rating, Cheatgrass", "setting": "cheatgrass; PREEMERGENCE, Rate 50 g/ha", "value": 0}, {"measurement": "Plant response rating, Chickweed", "setting": "chickweed; POSTEMERGENCE, Rate 10 g/ha", "value": 0}, {"measurement": "Plant response rating, Chickweed", "setting": "chickweed; POSTEMERGENCE, Rate 50 g/ha", "value": 3}, {"measurement": "Plant response rating, Chickweed", "setting": "chickweed; PREEMERGENCE, Rate 50 g/ha", "value": 0}, {"measurement": "Plant response rating, Cocklebur", "setting": "cocklebur; POSTEMERGENCE, Rate 10 g/ha", "value": 5}, {"measurement": "Plant response rating, Cocklebur", "setting": "cocklebur; POSTEMERGENCE, Rate 50 g/ha", "value": 9}, {"measurement": "Plant response rating, Cocklebur", "setting": "cocklebur; PREEMERGENCE, Rate 10 g/ha", "value": 0}, {"measurement": "Plant response rating, Cocklebur", "setting": "cocklebur; PREEMERGENCE, Rate 50 g/ha", "value": 0}, {"measurement": "Plant response rating, Corn", "setting": "corn; POSTEMERGENCE, Rate 10 g/ha", "value": 2}, {"measurement": "Plant response rating, Corn", "setting": "corn; POSTEMERGENCE, Rate 50 g/ha", "value": 5}, {"measurement": "Plant response rating, Corn", "setting": "corn; PREEMERGENCE, Rate 50 g/ha", "value": 0}, {"measurement": "Plant response rating, Cotton", "setting": "cotton; POSTEMERGENCE, Rate 10 g/ha", "value": 10}, {"measurement": "Plant response rating, Cotton", "setting": "cotton; POSTEMERGENCE, Rate 50 g/ha", "value": 10}, {"measurement": "Plant response rating, Cotton", "setting": "cotton; PREEMERGENCE, Rate 10 g/ha", "value": 0}, {"measurement": "Plant response rating, Cotton", "setting": "cotton; PREEMERGENCE, Rate 50 g/ha", "value": 0}, {"measurement": "Plant response rating, Crabgrass", "setting": "crabgrass; POSTEMERGENCE, Rate 10 g/ha", "value": 1}, {"measurement": "Plant response rating, Crabgrass", "setting": "crabgrass; POSTEMERGENCE, Rate 50 g/ha", "value": 2}, {"measurement": "Plant response rating, Crabgrass", "setting": "crabgrass; PREEMERGENCE, Rate 10 g/ha", "value": 0}, {"measurement": "Plant response rating, Crabgrass", "setting": "crabgrass; PREEMERGENCE, Rate 50 g/ha", "value": 0}, {"measurement": "Plant response rating, Giant foxtail", "setting": "giant foxtail; POSTEMERGENCE, Rate 10 g/ha", "value": 1}, {"measurement": "Plant response rating, Giant foxtail", "setting": "giant foxtail; POSTEMERGENCE, Rate 50 g/ha", "value": 3}, {"measurement": "Plant response rating, Giant foxtail", "setting": "giant foxtail; PREEMERGENCE, Rate 10 g/ha", "value": 0}, {"measurement": "Plant response rating, Giant foxtail", "setting": "giant foxtail; PREEMERGENCE, Rate 50 g/ha", "value": 0}, {"measurement": "Plant response rating, Lambsquarter", "setting": "lambsquarters; POSTEMERGENCE, Rate 10 g/ha", "value": 8}, {"measurement": "Plant response rating, Lambsquarter", "setting": "lambsquarters; POSTEMERGENCE, Rate 50 g/ha", "value": 9}, {"measurement": "Plant response rating, Lambsquarter", "setting": "lambsquarters; PREEMERGENCE, Rate 50 g/ha", "value": 9}, {"measurement": "Plant response rating, Morningglory", "setting": "morningglory; POSTEMERGENCE, Rate 10 g/ha", "value": 6}, {"measurement": "Plant response rating, Morningglory", "setting": "morningglory; POSTEMERGENCE, Rate 50 g/ha", "value": 9}, {"measurement": "Plant response rating, Morningglory", "setting": "morningglory; PREEMERGENCE, Rate 50 g/ha", "value": 0}, {"measurement": "Plant response rating, Rape", "setting": "rape; POSTEMERGENCE, Rate 10 g/ha", "value": 1}, {"measurement": "Plant response rating, Rape", "setting": "rape; POSTEMERGENCE, Rate 50 g/ha", "value": 6}, {"measurement": "Plant response rating, Rape", "setting": "rape; PREEMERGENCE, Rate 50 g/ha", "value": 0}, {"measurement": "Plant response rating, Rice", "setting": "rice; POSTEMERGENCE, Rate 10 g/ha", "value": 3}, {"measurement": "Plant response rating, Rice", "setting": "rice; POSTEMERGENCE, Rate 50 g/ha", "value": 3}, {"measurement": "Plant response rating, Rice", "setting": "rice; PREEMERGENCE, Rate 50 g/ha", "value": 0}, {"measurement": "Plant response rating, Sorghum", "setting": "sorghum; POSTEMERGENCE, Rate 10 g/ha", "value": 2}, {"measurement": "Plant response rating, Sorghum", "setting": "sorghum; POSTEMERGENCE, Rate 50 g/ha", "value": 2}, {"measurement": "Plant response rating, Sorghum", "setting": "sorghum; PREEMERGENCE, Rate 50 g/ha", "value": 0}, {"measurement": "Plant response rating, Soybean", "setting": "soybean; POSTEMERGENCE, Rate 10 g/ha", "value": 2}, {"measurement": "Plant response rating, Soybean", "setting": "soybean; POSTEMERGENCE, Rate 50 g/ha", "value": 8}, {"measurement": "Plant response rating, Soybean", "setting": "soybean; PREEMERGENCE, Rate 50 g/ha", "value": 0}, {"measurement": "Plant response rating, Sugar beet", "setting": "sugar beet; POSTEMERGENCE, Rate 10 g/ha", "value": 10}, {"measurement": "Plant response rating, Sugar beet", "setting": "sugar beet; POSTEMERGENCE, Rate 50 g/ha", "value": 10}, {"measurement": "Plant response rating, Sugar beet", "setting": "sugar beet; PREEMERGENCE, Rate 50 g/ha", "value": 10}, {"measurement": "Plant response rating, Velvetleaf", "setting": "velvetleaf; POSTEMERGENCE, Rate 10 g/ha", "value": 7}, {"measurement": "Plant response rating, Velvetleaf", "setting": "velvetleaf; POSTEMERGENCE, Rate 50 g/ha", "value": 10}, {"measurement": "Plant response rating, Velvetleaf", "setting": "velvetleaf; PREEMERGENCE, Rate 50 g/ha", "value": 2}, {"measurement": "Plant response rating, Wheat", "setting": "wheat; POSTEMERGENCE, Rate 10 g/ha", "value": 2}, {"measurement": "Plant response rating, Wheat", "setting": "wheat; POSTEMERGENCE, Rate 50 g/ha", "value": 2}, {"measurement": "Plant response rating, Wheat", "setting": "wheat; PREEMERGENCE, Rate 50 g/ha", "value": 2}, {"measurement": "Plant response rating, Wild buckwheat", "setting": "wild buckwheat; POSTEMERGENCE, Rate 10 g/ha", "value": 2}, {"measurement": "Plant response rating, Wild buckwheat", "setting": "wild buckwheat; POSTEMERGENCE, Rate 50 g/ha", "value": 10}, {"measurement": "Plant response rating, Wild buckwheat", "setting": "wild buckwheat; PREEMERGENCE, Rate 50 g/ha", "value": 0}, {"measurement": "Plant response rating, Wild oat", "setting": "wild oat; POSTEMERGENCE, Rate 10 g/ha", "value": 1}, {"measurement": "Plant response rating, Wild oat", "setting": "wild oat; POSTEMERGENCE, Rate 50 g/ha", "value": 2}, {"measurement": "Plant response rating, Wild oat", "setting": "wild oat; PREEMERGENCE, Rate 50 g/ha", "value": 0}, {"measurement": "Plant response rating, Nutsedge", "setting": "purple nutsedge; POSTEMERGENCE, Rate 10 g/ha", "value": 0}, {"measurement": "Plant response rating, Nutsedge", "setting": "purple nutsedge; POSTEMERGENCE, Rate 50 g/ha", "value": 0}, {"measurement": "Plant response rating, Nutsedge", "setting": "purple nutsedge; PREEMERGENCE, Rate 50 g/ha", "value": 0}]}
